Data on one substance can be found in patent publication US20100126880A1 (priority 2006, published 2010).

This experiment concerns dsDNA.

From the text: Intercalation properties of EDOT-ND-Os were further studied by competitive displacement assay.

Regarding “N[3-(imidazol-1-yl)propyl]-N′-[8-((2,3-dihydrothieno[3,4-b][1,4]dioxin-3-yl)methoxy)-3,6-dioxaoctyl]-1,4,5,8-naphthalenetetracarboxydiimide complex with Os(bpy)2Cl2 [EDOT-ND-Os]”, the binding constant is on record as 8×10^4.
